Data: patent US20210007356A1, “IMIDE DERIVATIVE AND FUNGICIDE CONTAINING SAID DERIVATIVE AS ACTIVE INGREDIENT” (HOKKO CHEMICAL INDUSTRY CO., LTD., priority 2018, published 2021)
Like-named read-outs stand apart in the source and are kept apart here.

Legend:
[1] = tested on: barley powdery mildew fungus (Erysiphe graminis); test: Test Example 2: control effect against barley powdery mildew by foliage application; type: in vivo; conditions: wettable powder diluted to 100 ppm, 10 mL per pot foliage spray on barley; inoculated day after; 7 days after inoculation
[2] = tested on: rice blast fungus (Pyricularia grisea); type: in vivo; conditions: flowable 5,000 ppm, 50 mL irrigation of nursery box, paddy rice; inoculated after 3 weeks; 7 days after inoculation
[3] = tested on: rice blast fungus (Pyricularia grisea); type: in vivo; conditions: 5 g of granule on nursery box, paddy rice; inoculated after 3 weeks; 7 days after inoculation
[4] = tested on: rice blast fungus (Pyricularia grisea); type: in vivo; conditions: flowable 1,000 ppm, 1 mL dripped in paddy water, inoculated after 1 week, 7 days after inoculation
[5] = tested on: rice sheath blight fungus (Thanatephorus cucumeris); test: Test Example 8: control effect against rice sheath blight by box treatment (granule); conditions: 5 g of granule on nursery box, paddy rice; inoculated after 3 weeks; 7 days after inoculation
[6] = tested on: rice sheath blight fungus (Thanatephorus cucumeris); test: Test Example 6: control effect against rice sheath blight by box treatment (flowable formulation); conditions: flowable 5,000 ppm, 50 mL irrigation of nursery box, paddy rice; inoculated after 3 weeks; 7 days after inoculation
[7] = tested on: rice sheath blight fungus (Thanatephorus cucumeris); test: Test Example 10: control effect against rice sheath blight by water surface application (flowable formulation); conditions: flowable 1,000 ppm, 1 mL dripped in paddy water, inoculated after 1 week, 7 days after inoculation

| SMILES | evaluation value of control effect (from control value, lesion area percentage) [1] | evaluation value of control effect (from control value, number of lesions) [2] | evaluation value of control effect (from control value, number of lesions) [3] | evaluation value of control effect (from control value, number of lesions) [4] | evaluation value of control effect (from control value, lesion height) [5] | evaluation value of control effect (from control value, lesion height) [6] | evaluation value of control effect (from control value, lesion height) [7] |
| --- | --- | --- | --- | --- | --- | --- | --- |
| Cc1nc(C(F)F)c(C(=O)N(C(=O)c2snnc2C(F)F)c2cccc3c2C(C)CC3(C)C)s1 (stereo not drawn) [26-57] | 4 | 5 | 5 | 5 | 5 | 5 | 5 |
| Cn1cc(C(=O)N(C(=O)c2cc(Cl)nc(Cl)c2)c2ccccc2-c2cc(F)c(F)c(F)c2)c(C(F)F)n1 [1-375] | 4 | 5 | 5 | 5 | 5 | 5 | 5 |
| Cc1nc(C(F)F)c(C(=O)N(C(=O)c2snc(Cl)c2Cl)c2cccc3c2C(C)OC3(C)C)s1 (stereo not drawn) [26-14] | 4 | 5 | 5 | 5 | 5 | 5 | 5 |
| Cc1nc(C(F)(F)F)c(C(=O)N(C(=O)c2scnc2C(F)F)c2c(Br)cc(OC(F)(F)F)cc2Br)s1 [7-283] | 4 | 5 | 5 | 5 | 5 | 5 | 5 |
| Cc1nnsc1C(=O)N(C(=O)c1cccnc1C(F)F)c1cccc2c1C(C)OC2(C)C (stereo not drawn) [27-16] | 4 | 5 | 5 | 5 | 5 | 5 | 5 |
| Cc1nc(C(F)(F)F)c(C(=O)N(C(=O)c2snnc2C)c2c(Br)cc(OC(F)(F)F)cc2Br)s1 [7-280] | 4 | 5 | 5 | 5 | 5 | 5 | 5 |
| Cc1nc(C(F)F)c(C(=O)N(C(=O)c2scnc2C(F)(F)F)c2ccccc2C(C)CC(C)C)s1 (stereo not drawn) [7-250] | 4 | 5 | 5 | 5 | 5 | 5 | 5 |
| Cc1nnsc1C(=O)N(C(=O)c1cn(C)nc1C(F)F)c1ccccc1CCC(C)C [1-145] | 5 | 5 | 5 | 5 | 5 | 5 | 5 |
| Cc1nnsc1C(=O)N(C(=O)c1cccnc1C(F)F)c1ccccc1C(C)CC(C)C (stereo not drawn) [13-10] | 5 | 5 | 5 | 5 | 5 | 5 | 5 |
| Cc1nc(C(F)F)c(C(=O)N(C(=O)c2snc(Cl)c2Cl)c2ccccc2CCC(C)C)s1 [7-37] | 4 | 5 | 5 | 5 | 5 | 5 | 5 |
| CC(C)CC(C)c1ccccc1N(C(=O)c1cn(C)nc1C(F)F)C(=O)c1scnc1C(F)(F)F (stereo not drawn) [1-333] | 4 | 5 | 5 | 5 | 5 | 5 | 5 |
| Cc1nc(C(F)F)c(C(=O)N(C(=O)c2cc(Cl)c(Cl)s2)c2ccccc2C(C)CC(C)C)s1 (stereo not drawn) [7-274] | 4 | 5 | 5 | 5 | 5 | 5 | 5 |
| Cc1nc(C(F)F)c(C(=O)N(C(=O)c2sc(C)nc2C(F)F)c2cccc3c2C(C)OC3(C)C)s1 (stereo not drawn) [26-78] | 4 | 5 | 5 | 5 | 5 | 5 | 5 |
| Cc1nc(C(F)F)c(C(=O)N(C(=O)c2onc(Cl)c2Cl)c2ccccc2C(C)CC(C)C)s1 (stereo not drawn) [7-277] | 5 | 5 | 5 | 5 | 5 | 5 | 5 |
| Cc1nc(C(F)F)c(C(=O)N(C(=O)c2cn(C)nc2C(F)F)c2ccccc2C(C)CC(C)C)s1 (stereo not drawn) [1-314] | 4 | 5 | 5 | 5 | 5 | 5 | 5 |
